Target: T1, human mGluR2 (Homo sapiens, UniProt Q14416)
T1 construct: chimeric mGluR2/CaR construct comprising the extracellular and transmembrane domains of human mGluR2 and the intracellular domain of the human calcium receptor, fused
Experiment: mGluR2 potentiator assays described herein (FLIPR calcium mobilization in HEK 293 cells expressing chimeric mGluR2/CaR, or [35S]-GTPγS binding with CHO cell membranes)
Assay type: cell-based
Settings: assay not specified (FLIPR or [35S]-GTPγS); allosteric activator/potentiator activity at mGluR2
Excerpt: The pharmacological properties of the compounds of the invention can be analyzed using standard assays for functional activity. Examples of glutamate receptor assays are well known in the art as described in, for example, Aramori et al., 1992, Neuron, 8:757; Tanabe et al., 1992, Neuron, 8:169; Miller et al., 1995, J. Neuroscience, 15:6103; Balazs, et al., 1997, J. Neurochemistry, 1997, 69:151. The methodology described in these publications is incorporated herein by reference. Conveniently, the compounds of the invention can be studied by means of an assay that measures the mobilization of intracellular calcium, [Ca^2+]i in cells expressing mGluR2.
Fluorometric Imaging Plate Reader (FLIPR) analysis was used to detect allosteric activators of mGluR2 via calcium mobilization. A clonal HEK 293 cell line expressing a chimeric mGluR2/CaR construct comprising the extracellular and transmembrane domains of human mGluR2 and the intracellular domain of the human calcium receptor, fused to the promiscuous chimeric protein Gαqi5 was used. […] At 24-hours prior to analysis, the cells were trypsinized and plated in DMEM at 100,000 cells/well in black sided, clear-bottom, collagen I coated, 96-well plates. The plates were incubated under 5% CO2 at 37° C. overnight. Cells were loaded with 6 μM fluo-3 acetoxymethylester (Molecular Probes, Eugene Oreg.) for 60 minutes at room temperature. […]
FLIPR experiments were done using a laser setting of 0.8 W and a 0.4 second CCD camera shutter speed. […] An addition of test compound (0.01 μM to 30 μM in duplicate) was made after 10 seconds of baseline fluorescent readings were recorded on FLIPR. Fluorescent signals were then recorded for an additional 75 seconds at which point a second addition of DCG-IV (0.2 μM) was made and fluorescent signals were recorded for an additional 65 seconds. Fluorescent signals were measured as the peak height of the response within the sample period. Data was analyzed using Assay Explorer, and EC50 and Emax values (relative to maximum DCG-IV effect) were calculated using a four parameter logistic equation.
A [^35S]-GTPγS binding assay was used to functionally assay mGluR2 receptor activation. The allosteric activator activity of compounds at the human mGluR2 receptor were measured using a [^35S]-GTPγS binding assay with membranes prepared from CHO cells which stably express the human mGluR2. […] The GTPγS binding assay therefore provides a quantitative measure of receptor activation.
Membranes were prepared from CHO cells stably transfected with human mGluR2. […] The amount of radioactivity bound was determined by counting plates on the Packard TopCount. […]

T1 sequence (Q14416 19-819 limits assumed): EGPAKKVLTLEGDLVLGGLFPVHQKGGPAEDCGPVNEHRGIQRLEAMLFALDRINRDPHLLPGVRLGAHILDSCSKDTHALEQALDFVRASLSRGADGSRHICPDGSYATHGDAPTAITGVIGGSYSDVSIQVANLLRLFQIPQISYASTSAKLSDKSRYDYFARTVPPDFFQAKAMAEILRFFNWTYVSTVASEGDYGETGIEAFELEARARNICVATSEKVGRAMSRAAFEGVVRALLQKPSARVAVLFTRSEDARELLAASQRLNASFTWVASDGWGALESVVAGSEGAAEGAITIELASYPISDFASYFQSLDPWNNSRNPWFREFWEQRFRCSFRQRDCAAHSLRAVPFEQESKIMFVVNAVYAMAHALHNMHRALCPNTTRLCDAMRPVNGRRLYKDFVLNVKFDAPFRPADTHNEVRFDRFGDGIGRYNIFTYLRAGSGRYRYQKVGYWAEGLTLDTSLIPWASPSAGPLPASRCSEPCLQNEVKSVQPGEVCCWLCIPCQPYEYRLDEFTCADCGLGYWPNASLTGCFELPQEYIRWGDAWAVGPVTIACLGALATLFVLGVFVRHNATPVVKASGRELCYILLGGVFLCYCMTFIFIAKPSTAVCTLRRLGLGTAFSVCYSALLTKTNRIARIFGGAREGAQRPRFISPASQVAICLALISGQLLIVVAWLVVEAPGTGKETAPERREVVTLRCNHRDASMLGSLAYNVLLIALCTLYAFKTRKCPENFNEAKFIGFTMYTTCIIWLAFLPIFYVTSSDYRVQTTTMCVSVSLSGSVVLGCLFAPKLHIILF

EC50 | Structure (SMILES)
230 nM | Cc1cc(-c2nc(CN3CCN(C=O)CC3)no2)cc2c1C(=O)N(Cc1ccc(OC(F)(F)F)cc1)C2 [Example 10.4, 4-{5-[7-Methyl-1-oxo-2-(4-trifluoromethoxy-benzyl)-2,3-dihydro-1H-isoindol-5-yl]-[1,2,4]oxadiazol-3-ylmethyl}-piperazine-1-carbaldehyde]
28 nM | Cc1cc(CC2CCN(Cc3ccc(F)cc3)CC2)cc2c1C(=O)N(CC1CCCCC1)C2 [Example 13.7, 2-Cyclohexylmethyl-5-[1-(4-fluoro-benzyl)-piperidin-4-ylmethyl]-7-methyl-2,3-dihydro-isoindol-1-one]
84 nM | Cc1cc(CC2CCN(Cc3ccccc3F)CC2)cc2c1C(=O)N(CC1CC1)C2 [Example 11, 2-Cyclopropylmethyl-5-[1-(2-fluorobenzyl)-piperidin-4-ylmethyl]-7-methyl-2,3-dihydro-isoindol-1-one]
75 nM | O=C1c2c(Cl)cc(-c3noc(CN4CCC(F)CC4)n3)cc2CN1Cc1ccc(OC(F)(F)F)cc1 [Example 8.3, 7-Chloro-5-[5-(4-fluoro-piperidin-1-ylmethyl)-[1,2,4]oxadiazol-3-yl]-2-(4-trifluoromethoxy-benzyl)-2,3-dihydro-isoindol-1-one]
